Target: T1, PriSLX (Saccharolobus solfataricus, UniProt Q97Z83+Q97ZS7)
T1 sequence (Q97Z83 1-330): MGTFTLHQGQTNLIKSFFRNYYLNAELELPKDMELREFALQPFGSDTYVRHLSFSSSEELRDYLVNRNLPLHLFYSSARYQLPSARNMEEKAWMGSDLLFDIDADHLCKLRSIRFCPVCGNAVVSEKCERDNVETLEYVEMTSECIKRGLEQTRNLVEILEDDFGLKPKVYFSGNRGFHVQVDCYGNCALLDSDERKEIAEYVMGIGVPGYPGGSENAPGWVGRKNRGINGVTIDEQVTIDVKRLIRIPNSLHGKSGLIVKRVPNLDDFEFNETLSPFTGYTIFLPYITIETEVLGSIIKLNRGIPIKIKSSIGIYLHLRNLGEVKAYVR
T1 sequence (Q97ZS7 1-154): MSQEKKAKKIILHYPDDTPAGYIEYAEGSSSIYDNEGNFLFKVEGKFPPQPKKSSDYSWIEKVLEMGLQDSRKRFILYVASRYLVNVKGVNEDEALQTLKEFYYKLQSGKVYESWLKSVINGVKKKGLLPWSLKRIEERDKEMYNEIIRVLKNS
T1 sequence (Q9UWW1 1-307 partner): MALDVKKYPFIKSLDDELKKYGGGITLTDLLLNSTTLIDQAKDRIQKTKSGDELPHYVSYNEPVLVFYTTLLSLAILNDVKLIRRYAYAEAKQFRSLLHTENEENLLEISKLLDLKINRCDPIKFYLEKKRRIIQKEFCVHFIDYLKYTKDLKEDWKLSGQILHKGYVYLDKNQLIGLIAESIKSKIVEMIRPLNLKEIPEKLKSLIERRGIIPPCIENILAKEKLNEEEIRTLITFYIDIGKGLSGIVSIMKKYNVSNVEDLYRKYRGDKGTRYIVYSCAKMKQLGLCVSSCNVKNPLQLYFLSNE
Experiment: primer synthesis, […]-labelled nucleotide, gel
Format: biochemical
Details: poly(dT) template; pH 6.0, 10 mM MnCl2, 10 µM ZnCl2, 75 °C

Nc1ncnc2c1ncn2[C@H]1C[C@H](O)[C@@H](COP(=O)(O)OP(=O)(O)OP(=O)(O)O)O1 [dATP]
primer synthesis, 32P-labelled nucleotide, gel: reactions with solely dATP as substrate primarily generate a lower yield

From PMC6042085 (Proceedings of the National Academy of Sciences of the …, 2018)
